In paper PMC11480411, “Mucosal sugars delineate pyrazine vs pyrazinone autoinducer signaling in Klebsiella oxytoca” (Nature Communications, 2024):

Tests used:
Assay in all cases: PRESTO-Tango GPCR screen
Format in all cases: cell-based
Settings in all cases: 100 µM
[1] = target: T1, DRD1 (Homo sapiens, UniProt P21728)
T1 construct: purchased PRESTO-Tango GPCR kit (Roth lab / Addgene)
Method: (§1) The PRESTO-Tango analyses were performed as previously published. Briefly, HTLA cells, a HEK293 cell line that stably expresses β-arrestin-TEV and tTA-Luciferase (a kind gift from Gilad Barnea, Brown University), were plated in 96-well tissue culture plates (Eppendorf) in DMEM containing 10% FBS and 1% Penicillin/Streptomycin. One day after plating (after reaching approximately 90% confluence), 200 ng per well GPCR-Tango plasmids[37] in 20 μL DMEM were individually mixed with 400 ng polyethylenimine (Polysciences) in an equal volume of DMEM and incubated for 20 min at room temperature before adding the transfection mixture to the HTLA cells. 16-24 h after transfection, medium was replaced with 180 μL fresh DMEM containing 1% Penicillin/Streptomycin and 10 mM HEPES and 20 μL of 3 or 3-Homo to reach a final concentration of 100 μM. Supernatants were aspirated 20 h after stimulation and 50 μl per well of Bright-Glo solution (Promega) diluted 20-fold with PBS containing 20 mM HEPES was added into each well. After 15 min incubation at room temperature, luminescence was quantified using a Spectramax i3x microplate reader (Molecular Devices). Activation fold for each sample was calculated by dividing relative luminescence units (RLU) for each condition by RLUs from PBS control. Dose response curves of each chemical were performed in a similar way with varying the ligand concentration from 10^−4 M to 10^−15 M.

[2] = target: T2, HTR1F (Homo sapiens, UniProt P30939)
T2 construct: purchased PRESTO-Tango GPCR kit (Roth lab / Addgene)
Method: as §1

[3] = target: T3, LPAR5 (Homo sapiens, UniProt Q9H1C0)
T3 construct: purchased PRESTO-Tango GPCR kit (Roth lab / Addgene)
Method: as §1

[4] = target: T4, ADRA2C (Homo sapiens, UniProt P18825)
T4 construct: purchased PRESTO-Tango GPCR kit (Roth lab / Addgene)
Method: as §1

[5] = target: T5, PTH2R (Homo sapiens, UniProt P49190)
T5 construct: purchased PRESTO-Tango GPCR kit (Roth lab / Addgene)
Method: as §1

[6] = target: T6, SSTR3 (Homo sapiens, UniProt P32745)
T6 construct: purchased PRESTO-Tango GPCR kit (Roth lab / Addgene)
T6 sequence (P32745 whole entry): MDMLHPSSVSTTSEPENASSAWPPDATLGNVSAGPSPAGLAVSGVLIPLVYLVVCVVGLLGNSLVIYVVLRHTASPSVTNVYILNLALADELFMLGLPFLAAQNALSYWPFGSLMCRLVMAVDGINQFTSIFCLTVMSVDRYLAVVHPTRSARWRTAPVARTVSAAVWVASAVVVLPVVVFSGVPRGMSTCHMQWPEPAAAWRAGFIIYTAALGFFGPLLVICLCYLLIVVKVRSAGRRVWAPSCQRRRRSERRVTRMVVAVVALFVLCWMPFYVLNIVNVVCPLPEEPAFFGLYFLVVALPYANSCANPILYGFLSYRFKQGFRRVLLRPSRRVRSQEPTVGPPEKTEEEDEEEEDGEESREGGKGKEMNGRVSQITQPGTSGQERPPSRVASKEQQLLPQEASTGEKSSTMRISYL
Method: as §1

[7] = target: T7, CXCR6 (Homo sapiens, UniProt O00574)
T7 construct: purchased PRESTO-Tango GPCR kit (Roth lab / Addgene)
Method: as §1

[8] = target: T8, GPR17 (Homo sapiens, UniProt Q13304)
T8 construct: purchased PRESTO-Tango GPCR kit (Roth lab / Addgene)
Method: as §1

[9] = target: T9, GPR113 (Homo sapiens, UniProt Q8IZF5)
T9 construct: purchased PRESTO-Tango GPCR kit (Roth lab / Addgene)
Method: as §1

[10] = target: T10, S1PR4 (Homo sapiens, UniProt O95977)
T10 construct: purchased PRESTO-Tango GPCR kit (Roth lab / Addgene)
T10 sequence (O95977 whole entry): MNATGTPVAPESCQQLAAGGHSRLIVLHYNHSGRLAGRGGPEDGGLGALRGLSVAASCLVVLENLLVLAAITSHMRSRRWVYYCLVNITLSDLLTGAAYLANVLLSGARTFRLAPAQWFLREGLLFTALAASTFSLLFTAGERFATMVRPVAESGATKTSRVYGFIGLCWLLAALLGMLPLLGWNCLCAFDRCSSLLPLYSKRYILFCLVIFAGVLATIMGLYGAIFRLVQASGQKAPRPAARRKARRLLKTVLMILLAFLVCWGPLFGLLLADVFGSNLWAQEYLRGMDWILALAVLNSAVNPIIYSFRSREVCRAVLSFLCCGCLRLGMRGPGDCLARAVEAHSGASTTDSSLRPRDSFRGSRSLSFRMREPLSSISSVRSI
Method: as §1

[11] = target: T11, GAL2 (Homo sapiens, UniProt O43603)
T11 construct: purchased PRESTO-Tango GPCR kit (Roth lab / Addgene)
Method: as §1

[12] = target: T12, GCGR (Homo sapiens, UniProt P47871)
T12 construct: purchased PRESTO-Tango GPCR kit (Roth lab / Addgene)
T12 sequence (P47871 26-477): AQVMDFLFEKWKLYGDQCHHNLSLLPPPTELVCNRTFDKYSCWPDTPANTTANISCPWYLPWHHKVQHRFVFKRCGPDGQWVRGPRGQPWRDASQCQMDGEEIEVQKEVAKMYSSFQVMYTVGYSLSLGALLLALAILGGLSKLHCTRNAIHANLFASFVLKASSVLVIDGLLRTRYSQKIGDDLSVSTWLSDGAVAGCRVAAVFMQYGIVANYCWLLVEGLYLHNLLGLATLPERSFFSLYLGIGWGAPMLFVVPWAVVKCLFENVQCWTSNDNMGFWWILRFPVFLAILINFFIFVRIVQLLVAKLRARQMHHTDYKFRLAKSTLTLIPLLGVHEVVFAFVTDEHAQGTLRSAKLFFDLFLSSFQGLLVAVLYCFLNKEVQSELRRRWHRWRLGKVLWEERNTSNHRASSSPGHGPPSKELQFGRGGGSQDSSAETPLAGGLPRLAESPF
Method: as §1

[13] = target: T13, LPAR1 (Homo sapiens, UniProt Q92633)
T13 construct: purchased PRESTO-Tango GPCR kit (Roth lab / Addgene)
T13 sequence (Q92633 whole entry): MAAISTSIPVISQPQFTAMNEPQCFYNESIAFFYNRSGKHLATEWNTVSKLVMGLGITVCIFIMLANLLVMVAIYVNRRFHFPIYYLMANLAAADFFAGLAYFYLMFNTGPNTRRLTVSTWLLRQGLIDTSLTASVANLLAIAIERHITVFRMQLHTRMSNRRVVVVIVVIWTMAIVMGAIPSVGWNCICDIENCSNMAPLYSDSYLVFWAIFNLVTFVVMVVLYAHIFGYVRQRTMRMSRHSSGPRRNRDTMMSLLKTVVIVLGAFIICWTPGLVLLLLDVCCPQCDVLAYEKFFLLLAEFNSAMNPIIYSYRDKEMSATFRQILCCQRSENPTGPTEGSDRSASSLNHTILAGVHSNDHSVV
Method: as §1

[14] = target: T14, GIPR (Homo sapiens, UniProt P48546)
T14 construct: purchased PRESTO-Tango GPCR kit (Roth lab / Addgene)
T14 sequence (P48546 22-466): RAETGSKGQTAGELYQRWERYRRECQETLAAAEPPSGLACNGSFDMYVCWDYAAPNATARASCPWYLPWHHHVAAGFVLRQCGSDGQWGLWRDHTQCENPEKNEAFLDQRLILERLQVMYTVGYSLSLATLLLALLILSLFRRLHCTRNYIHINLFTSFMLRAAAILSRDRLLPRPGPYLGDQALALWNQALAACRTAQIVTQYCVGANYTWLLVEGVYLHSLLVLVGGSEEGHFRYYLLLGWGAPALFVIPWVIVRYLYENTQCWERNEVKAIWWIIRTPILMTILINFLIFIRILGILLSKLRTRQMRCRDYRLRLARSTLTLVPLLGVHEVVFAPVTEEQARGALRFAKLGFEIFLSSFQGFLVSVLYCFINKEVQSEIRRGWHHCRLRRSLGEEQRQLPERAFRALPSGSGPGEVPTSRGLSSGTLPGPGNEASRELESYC
Method: as §1

[15] = target: T15, GPR61 (Homo sapiens, UniProt Q9BZJ8)
T15 construct: purchased PRESTO-Tango GPCR kit (Roth lab / Addgene)
Method: as §1

[16] = target: T16, GPR78 (Homo sapiens, UniProt Q96P69)
T16 construct: purchased PRESTO-Tango GPCR kit (Roth lab / Addgene)
Method: as §1

[17] = target: T17, NPY2R (Homo sapiens, UniProt P49146)
T17 construct: purchased PRESTO-Tango GPCR kit (Roth lab / Addgene)
T17 sequence (P49146 whole entry): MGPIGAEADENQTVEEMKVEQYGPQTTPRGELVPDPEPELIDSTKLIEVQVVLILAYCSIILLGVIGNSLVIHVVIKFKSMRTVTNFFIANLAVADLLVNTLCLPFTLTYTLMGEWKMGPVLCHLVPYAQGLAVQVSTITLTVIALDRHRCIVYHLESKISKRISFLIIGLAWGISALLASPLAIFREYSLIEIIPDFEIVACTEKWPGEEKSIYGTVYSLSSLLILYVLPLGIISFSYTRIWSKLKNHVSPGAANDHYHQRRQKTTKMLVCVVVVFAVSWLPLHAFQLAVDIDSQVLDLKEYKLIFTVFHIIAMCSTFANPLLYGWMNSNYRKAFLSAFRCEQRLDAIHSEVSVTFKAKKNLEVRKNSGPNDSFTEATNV
Method: as §1

[18] = target: T18, HTR1D (Homo sapiens, UniProt P28221)
T18 construct: purchased PRESTO-Tango GPCR kit (Roth lab / Addgene)
T18 sequence (P28221 whole entry): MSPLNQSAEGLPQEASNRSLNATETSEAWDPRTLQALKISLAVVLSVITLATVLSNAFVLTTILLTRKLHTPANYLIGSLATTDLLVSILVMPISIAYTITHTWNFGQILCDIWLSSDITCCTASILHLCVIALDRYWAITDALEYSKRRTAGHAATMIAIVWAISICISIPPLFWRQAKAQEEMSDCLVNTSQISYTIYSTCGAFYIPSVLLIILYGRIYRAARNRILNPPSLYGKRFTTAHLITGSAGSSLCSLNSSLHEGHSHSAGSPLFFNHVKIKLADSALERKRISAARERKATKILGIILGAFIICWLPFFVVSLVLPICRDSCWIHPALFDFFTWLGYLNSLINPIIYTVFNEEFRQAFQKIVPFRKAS
Method: as §1

[19] = target: T19, GPR148 (Homo sapiens, UniProt Q8TDV2)
T19 construct: purchased PRESTO-Tango GPCR kit (Roth lab / Addgene)
Method: as §1

[20] = target: T20, GPR6 (Homo sapiens, UniProt P46095)
T20 construct: purchased PRESTO-Tango GPCR kit (Roth lab / Addgene)
Method: as §1

[21] = target: T21, MRGPRF (Homo sapiens, UniProt Q96AM1)
T21 construct: purchased PRESTO-Tango GPCR kit (Roth lab / Addgene)
T21 sequence (Q96AM1 whole entry): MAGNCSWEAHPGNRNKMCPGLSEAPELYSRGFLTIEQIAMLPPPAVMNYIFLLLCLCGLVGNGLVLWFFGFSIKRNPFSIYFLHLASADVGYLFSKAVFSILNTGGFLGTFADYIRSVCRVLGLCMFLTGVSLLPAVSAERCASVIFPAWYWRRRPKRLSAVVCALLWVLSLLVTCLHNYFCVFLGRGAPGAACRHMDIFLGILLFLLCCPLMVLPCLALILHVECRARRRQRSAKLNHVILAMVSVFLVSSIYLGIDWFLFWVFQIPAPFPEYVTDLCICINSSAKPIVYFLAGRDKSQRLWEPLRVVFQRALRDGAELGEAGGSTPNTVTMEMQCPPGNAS
Method: as §1

[22] = target: T22, GPR87 (Homo sapiens, UniProt Q9BY21)
T22 construct: purchased PRESTO-Tango GPCR kit (Roth lab / Addgene)
T22 sequence (Q9BY21 whole entry): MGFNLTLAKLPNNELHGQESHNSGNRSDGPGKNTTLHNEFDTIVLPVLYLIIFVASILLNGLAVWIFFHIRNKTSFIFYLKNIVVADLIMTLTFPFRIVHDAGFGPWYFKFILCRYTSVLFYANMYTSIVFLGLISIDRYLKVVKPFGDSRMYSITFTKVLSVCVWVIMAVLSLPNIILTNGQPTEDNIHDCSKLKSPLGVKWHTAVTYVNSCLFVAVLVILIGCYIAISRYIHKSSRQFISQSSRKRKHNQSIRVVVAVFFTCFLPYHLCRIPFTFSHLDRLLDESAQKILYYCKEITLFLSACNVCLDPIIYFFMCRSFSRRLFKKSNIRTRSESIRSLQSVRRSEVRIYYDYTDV
Method: as §1

[23] = target: T23, GPR133 (Homo sapiens, UniProt Q6QNK2)
T23 construct: purchased PRESTO-Tango GPCR kit (Roth lab / Addgene)
Method: as §1

[24] = target: T24, CCR4 (Homo sapiens, UniProt P51679)
T24 construct: purchased PRESTO-Tango GPCR kit (Roth lab / Addgene)
T24 sequence (P51679 whole entry): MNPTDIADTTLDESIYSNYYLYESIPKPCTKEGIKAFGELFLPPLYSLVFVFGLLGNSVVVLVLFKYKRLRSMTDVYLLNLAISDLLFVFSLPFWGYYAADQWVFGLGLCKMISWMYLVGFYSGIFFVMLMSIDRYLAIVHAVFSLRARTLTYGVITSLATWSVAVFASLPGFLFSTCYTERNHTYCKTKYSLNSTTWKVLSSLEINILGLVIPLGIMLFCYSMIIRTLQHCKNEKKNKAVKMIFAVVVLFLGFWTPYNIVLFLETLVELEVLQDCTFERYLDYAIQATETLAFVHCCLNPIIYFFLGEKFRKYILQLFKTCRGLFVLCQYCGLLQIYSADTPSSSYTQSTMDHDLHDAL
Method: as §1

[25] = target: T25, GPR144 (Homo sapiens, UniProt Q7Z7M1)
T25 construct: purchased PRESTO-Tango GPCR kit (Roth lab / Addgene)
Method: as §1

[26] = target: T26, GAL3 (Homo sapiens, UniProt O60755)
T26 construct: purchased PRESTO-Tango GPCR kit (Roth lab / Addgene)
Method: as §1

[27] = target: T27, GPR18 (Homo sapiens, UniProt Q14330)
T27 construct: purchased PRESTO-Tango GPCR kit (Roth lab / Addgene)
Method: as §1

[28] = target: T28, GPR3 (Homo sapiens, UniProt P46089)
T28 construct: purchased PRESTO-Tango GPCR kit (Roth lab / Addgene)
Method: as §1

[29] = target: T29, P2RY8 (Homo sapiens, UniProt Q86VZ1)
T29 construct: purchased PRESTO-Tango GPCR kit (Roth lab / Addgene)
Method: as §1

[30] = target: T30, GPER (Homo sapiens, UniProt Q99527)
T30 construct: purchased PRESTO-Tango GPCR kit (Roth lab / Addgene)
Method: as §1

[31] = target: T31, C3AR1 (Homo sapiens, UniProt Q16581)
T31 construct: purchased PRESTO-Tango GPCR kit (Roth lab / Addgene)
Method: as §1

[32] = target: T32, RXFP4 (Homo sapiens, UniProt Q8TDU9)
T32 construct: purchased PRESTO-Tango GPCR kit (Roth lab / Addgene)
Method: as §1

[33] = target: T33, HTR6 (Homo sapiens, UniProt P50406)
T33 construct: purchased PRESTO-Tango GPCR kit (Roth lab / Addgene)
Method: as §1

[34] = target: T34, GPR132 (Homo sapiens, UniProt Q9UNW8)
T34 construct: purchased PRESTO-Tango GPCR kit (Roth lab / Addgene)
Method: as §1

[35] = target: T35, CASR (Homo sapiens, UniProt P41180)
T35 construct: purchased PRESTO-Tango GPCR kit (Roth lab / Addgene)
T35 sequence (P41180 20-1078): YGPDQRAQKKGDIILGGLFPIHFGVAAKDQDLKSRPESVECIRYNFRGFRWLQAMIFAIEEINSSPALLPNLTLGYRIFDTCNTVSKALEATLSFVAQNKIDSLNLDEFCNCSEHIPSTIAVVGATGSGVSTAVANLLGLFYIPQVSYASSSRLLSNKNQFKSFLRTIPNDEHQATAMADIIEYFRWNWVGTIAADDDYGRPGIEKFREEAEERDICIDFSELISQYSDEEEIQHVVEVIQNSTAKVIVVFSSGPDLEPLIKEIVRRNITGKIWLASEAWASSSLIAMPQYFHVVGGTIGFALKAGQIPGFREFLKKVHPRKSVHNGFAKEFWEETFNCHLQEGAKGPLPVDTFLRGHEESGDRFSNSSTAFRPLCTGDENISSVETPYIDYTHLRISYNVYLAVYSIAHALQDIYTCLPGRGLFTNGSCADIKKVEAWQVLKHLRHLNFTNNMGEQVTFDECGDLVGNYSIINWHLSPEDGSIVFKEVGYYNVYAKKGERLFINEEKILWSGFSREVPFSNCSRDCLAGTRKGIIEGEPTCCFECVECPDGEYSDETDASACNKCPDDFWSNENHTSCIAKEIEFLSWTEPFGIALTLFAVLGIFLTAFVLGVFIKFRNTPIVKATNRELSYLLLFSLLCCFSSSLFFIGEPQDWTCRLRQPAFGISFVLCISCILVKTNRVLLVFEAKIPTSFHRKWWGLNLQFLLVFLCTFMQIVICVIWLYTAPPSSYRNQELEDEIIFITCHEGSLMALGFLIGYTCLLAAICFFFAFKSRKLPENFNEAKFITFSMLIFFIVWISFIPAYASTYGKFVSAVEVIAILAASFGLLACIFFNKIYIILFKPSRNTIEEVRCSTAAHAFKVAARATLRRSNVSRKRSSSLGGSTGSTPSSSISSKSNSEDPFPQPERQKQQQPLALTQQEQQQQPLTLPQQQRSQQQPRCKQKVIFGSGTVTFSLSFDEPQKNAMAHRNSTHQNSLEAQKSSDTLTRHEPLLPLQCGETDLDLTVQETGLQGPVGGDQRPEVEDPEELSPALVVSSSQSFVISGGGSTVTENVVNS
Method: as §1

[36] = target: T36, CX3C1 (Homo sapiens, UniProt P49238)
T36 construct: purchased PRESTO-Tango GPCR kit (Roth lab / Addgene)
Method: as §1

Row | SMILES | GPCR activation (heatmap value) [1] | GPCR activation (heatmap value) [2] | GPCR activation (heatmap value) [3] | GPCR activation (heatmap value) [4] | GPCR activation (heatmap value) [5] | GPCR activation (heatmap value) [6] | GPCR activation (heatmap value) [7] | GPCR activation (heatmap value) [8] | GPCR activation (heatmap value) [9] | GPCR activation (heatmap value) [10] | GPCR activation (heatmap value) [11] | GPCR activation (heatmap value) [12] | GPCR activation (heatmap value) [13] | GPCR activation (heatmap value) [14] | GPCR activation (heatmap value) [15] | GPCR activation (heatmap value) [16] | GPCR activation (heatmap value) [17] | GPCR activation (heatmap value) [18] | GPCR activation (heatmap value) [19] | GPCR activation (heatmap value) [20] | other results
1 | CC(C)Cc1ncc(CCCCNC(=N)N)[nH]c1=O [3-Homo] | 0.1434 | -0.1727 | 0.1689 | 0.6954 | -0.1142 | 0.1422 | 1.014 | 0.06719 | -0.1784 | 0.5734 | 0.5878 | 0.3222 | -0.9265 | 0.1024 | 1.164 | -0.4102 | 0.3401 | -0.01602 | 0.1551 | 0.1759 | GPCR activation (heatmap value) [21]: 0.9987; GPCR activation (heatmap value) [22]: -0.5192; GPCR activation (heatmap value) [23]: -0.3215; GPCR activation (heatmap value) [24]: 0.4296; GPCR activation (heatmap value) [25]: -0.2529; GPCR activation (heatmap value) [26]: 0.4523; GPCR activation (heatmap value) [27]: -0.3064; GPCR activation (heatmap value) [28]: -1.589; GPCR activation (heatmap value) [29]: 0.2867; GPCR activation (heatmap value) [30]: -0.07314; GPCR activation (heatmap value) [31]: -0.001199; GPCR activation (heatmap value) [32]: -0.8625; GPCR activation (heatmap value) [33]: -0.2493; GPCR activation (heatmap value) [34]: 0.4638; GPCR activation (heatmap value) [35]: -0.5038; GPCR activation (heatmap value) [36]: 0.09565
2 | CC(C)Cc1ncc(CCCNC(=N)N)[nH]c1=O [compound 3] | 0.8634 | 0.1369 | 0.04943 | 0.2266 | -0.2039 | -0.3508 | 0.09324 | 0.1737 | -0.04557 | 0.1012 | 0.1995 | 0.3476 | -0.4869 | 0.1911 | 0.4932 | -0.2783 | 0.1932 | 0.2043 | 0.6105 | -1.168 | GPCR activation (heatmap value) [21]: 0.6496; GPCR activation (heatmap value) [22]: -0.4548; GPCR activation (heatmap value) [23]: -0.6324; GPCR activation (heatmap value) [24]: -0.299; GPCR activation (heatmap value) [25]: 0.6653; GPCR activation (heatmap value) [26]: 0.02852; GPCR activation (heatmap value) [27]: 0.788; GPCR activation (heatmap value) [28]: -0.8156; GPCR activation (heatmap value) [29]: 0.4444; GPCR activation (heatmap value) [30]: 0.1603; GPCR activation (heatmap value) [31]: -0.2058; GPCR activation (heatmap value) [32]: -0.6712; GPCR activation (heatmap value) [33]: 0.5944; GPCR activation (heatmap value) [34]: 0.3578; GPCR activation (heatmap value) [35]: -0.8261; GPCR activation (heatmap value) [36]: 0.5532
